Measured values from patent US20090054392A1, “NAPHTHYLPYRIMIDINE, NAPHTHYLPYRAZINE AND NAPHTHYLPYRIDAZINE ANALOGS AND THEIR USE AS AGONISTS OF THE WNT-BETA-CATENIN CELLULAR MESSAGING SYSTEM” (Wyeth, priority 2007, published 2009).

Key:
Dkk1-LRP5-TCF-Luciferase [1] = test system: Dkk1-LRP5-TCF-Luciferase
Dkk1-LRP5-TCF-Luciferase [2] = experiment: Functional Dkk1-LRP5-TCF-Luciferase Assay in U2OS Cells; conditions: for fold induction at 2 µM / fold induction at 20 µM / EC50: Homo sapiens, U2OS; for fold induction at 2 µM: read-out: B = TCF ACTIVITY/DMSO CONTROL Fold induction @ 2.0 uM, 2.0 uM compound; for fold induction at 20 µM: read-out: C = TCF ACTIVITY/DMSO CONTROL Fold induction @ 20.0 uM, 20.0 uM compound; for A = MAX FOLD Induction/DMSO CONTROL: maximum fold induction over DMSO control

Compound | fold induction at 2 µM (Dkk1-LRP5-TCF-Luciferase [2]) | fold induction at 20 µM (Dkk1-LRP5-TCF-Luciferase [2]) | other results
6-{2-[4-(aminomethyl)piperidin-1-yl]pyrimidin-4-yl}-2-naphthyl acetate | – | – | B = TCF ACTIVITY/DMSO CONTROL Fold induction @ 2.0 uM (Dkk1-LRP5-TCF-Luciferase [1]; 2 µM): 1.435 fold; C = TCF ACTIVITY/DMSO CONTROL Fold induction @ 20.0 uM (Dkk1-LRP5-TCF-Luciferase [1]; 20 µM): 1.995 fold
CC(C)(C)OC(=O)N1CCN(c2nccc(-c3ccc4ccccc4c3)n2)CC1 [tert-butyl 4-[4-(2-naphthyl)pyrimidin-2-yl]piperazine-1-carboxylate] | 0.98 | 1.94 | –
CC(C)(C)OC(=O)N1CCC(Nc2nccc(-c3ccc4ccccc4c3)n2)CC1 [tert-butyl 4-{[4-(2-naphthyl)pyrimidin-2-yl]amino}piperidine-1-carboxylate] | 1 | 1.41 | –
CN(c1nccc(-c2ccc3ccccc3c2)n1)C1CCN(C(=O)OC(C)(C)C)CC1 [tert-butyl 4-{methyl[4-(2-naphthyl)pyrimidin-2-yl]amino}piperidine-1-carboxylate] | 0.98 | 1.92 | –
CC(NC(=O)OC(C)(C)C)C1CCN(c2nccc(-c3ccc4ccccc4c3)n2)CC1 (centres unmarked) [tert-butyl (1-{1-[4-(2-naphthyl)pyrimidin-2-yl]piperidin-4-yl}ethyl)carbamate] | – | 0.81 | –
CC(C)(C)OC(=O)NC1CCCC(Nc2nccc(-c3ccc4ccccc4c3)n2)C1 (centres unmarked) [tert-butyl (3-{[4-(2-naphthyl)pyrimidin-2-yl]amino}cyclohexyl)carbamate] | 1.07 | 0.3 | –
CC(C)(C)OC(=O)N1CC[C@H](CNc2nccc(-c3ccc4ccccc4c3)n2)C1 [tert-butyl (3R)-3-({[4-(2-naphthyl)pyrimidin-2-yl]amino}methyl)pyrrolidine-1-carboxylate] | 1.83 | – | –
CC(C)(C)OC(=O)N1CC[C@@H](Nc2nccc(-c3ccc4ccccc4c3)n2)C1 [tert-butyl (3R)-3-{[4-(2-naphthyl)pyrimidin-2-yl]amino}pyrrolidine-1-carboxylate] | 2.38 | 0.01 | A = MAX FOLD Induction/DMSO CONTROL (Dkk1-LRP5-TCF-Luciferase [2]): 0.800 fold
CC(C)(C)OC(=O)N1CC[C@@H](CNc2nccc(-c3ccc4ccccc4c3)n2)C1 [tert-butyl (3S)-3-({[4-(2-naphthyl)pyrimidin-2-yl]amino}methyl)pyrrolidine-1-carboxylate] | – | 0.01 | –
CC(C)(C)OC(=O)N1CC[C@H](Nc2nccc(-c3ccc4ccccc4c3)n2)C1 [tert-butyl (3S)-3-{[4-(2-naphthyl)pyrimidin-2-yl]amino}pyrrolidine-1-carboxylate] | 2.11 | – | A = MAX FOLD Induction/DMSO CONTROL (Dkk1-LRP5-TCF-Luciferase [2]): 1.270 fold
CC(C)(C)OC(=O)N[C@@H](CO)C1CCN(c2nccc(-c3ccc4ccccc4c3)n2)CC1 [tert-butyl ((1R)-2-hydroxy-1-{1-[4-(2-naphthyl)pyrimidin-2-yl]piperidin-4-yl}ethyl)carbamate] | 1.13 | 0.35 | –
CC(C)(C)OC(=O)N[C@H](C1CCN(c2nccc(-c3ccc4ccccc4c3)n2)CC1)C(C)(C)O [tert-butyl ((1R)-2-hydroxy-2-methyl-1-{1-[4-(2-naphthyl)pyrimidin-2-yl]piperidin-4-yl}propyl)carbamate] | 1.79 | – | –
C[C@H](NC(=O)OC(C)(C)C)C1CCN(c2nccc(-c3ccc4ccccc4c3)n2)CC1 [tert-butyl ((1S)-1-{1-[4-(2-naphthyl)pyrimidin-2-yl]piperidin-4-yl}ethyl)carbamate] | – | 1.08 | –
CC(C)(C)OC(=O)N[C@H](CO)C1CCN(c2nccc(-c3ccc4ccccc4c3)n2)CC1 [tert-butyl ((1S)-2-hydroxy-1-{1-[4-(2-naphthyl)pyrimidin-2-yl]piperidin-4-yl}ethyl)carbamate] | 1.22 | 0.44 | –
CC(C)(C)OC(=O)NCC1CN(c2nccc(-c3ccc4ccccc4c3)n2)C1 [tert-butyl ({1-[4-(2-naphthyl)pyrimidin-2-yl]azetidin-3-yl}methyl)carbamate] | 1.41 | 0.46 | –
CC(C)(C)OC(=O)NCC1CCCN(c2nccc(-c3ccc4ccccc4c3)n2)C1 (centres unmarked) [tert-butyl ({1-[4-(2-naphthyl)pyrimidin-2-yl]piperidin-3-yl}methyl)carbamate] | 0.91 | 1.94 | –

Compound | fold induction at 2 µM (Dkk1-LRP5-TCF-Luciferase [2]) | fold induction at 20 µM (Dkk1-LRP5-TCF-Luciferase [2]) | other results
CC(C)(C)OC(=O)NCC1CCN(c2nccc(-c3ccc4ccccc4c3)n2)C1 (centres unmarked) [tert-butyl ({1-[4-(2-naphthyl)pyrimidin-2-yl]pyrrolidin-3-yl}methyl)carbamate] | 1.09 | 0.17 | –
CC(C)(C)OC(=O)NC1CCCN(c2nccc(-c3ccc4ccccc4c3)n2)CC1 (centres unmarked) [tert-butyl {1-[4-(2-naphthyl)pyrimidin-2-yl]azepan-4-yl}carbamate] | 1.34 | 0.33 | –
CC(C)(C)OC(=O)NC1CCN(c2nccc(-c3ccc4ccccc4c3)n2)CC1 [tert-butyl {1-[4-(2-naphthyl)pyrimidin-2-yl]piperidin-4-yl}carbamate] | 0.93 | 1.91 | –
CC(C)(C)OC(=O)NCCC1CN(c2nccc(-c3ccc4ccccc4c3)n2)C1 [tert-butyl {2-[1-(4-naphthalen-2-ylpyrimidin-2-yl)azetidin-3-yl]ethyl}carbamate] | – | 1.6 | –
CC(C)(C)OC(=O)N[C@@H]1CCN(c2nccc(-c3ccc4ccccc4c3)n2)C1 [tert-butyl {(3R)-1-[4-(2-naphthyl)pyrimidin-2-yl]pyrrolidin-3-yl}carbamate] | 1.95 | – | –
CC(C)(C)OC(=O)N[C@H]1CCN(c2nccc(-c3ccc4ccccc4c3)n2)C1 [tert-butyl {(3S)-1-[4-(2-naphthyl)pyrimidin-2-yl]pyrrolidin-3-yl}carbamate] | 1.51 | – | –
N[C@H]1CC[C@H](Nc2nccc(-c3ccc4ccccc4c3)n2)CC1 [trans-N-[4-(2-naphthyl)pyrimidin-2-yl]cyclohexane-1,4-diamine] | 1.91 | 3.95 | EC50 (Dkk1-LRP5-TCF-Luciferase [2]): 3700 nM; A = MAX FOLD Induction/DMSO CONTROL (Dkk1-LRP5-TCF-Luciferase [2]): 4.730 fold
O=CNC1CCCN(c2nccc(-c3ccc4ccccc4c3)n2)CC1 (centres unmarked) [{1-[4-(2-naphthyl)pyrimidin-2-yl]azepan-4-yl}formamide] | 1.5 | 2.05 | EC50 (Dkk1-LRP5-TCF-Luciferase [2]): 2250 nM; A = MAX FOLD Induction/DMSO CONTROL (Dkk1-LRP5-TCF-Luciferase [2]): 1.800 fold
OCC1CCN(c2nccc(-c3ccc4ccccc4c3)n2)CC1 [{1-[4-(2-naphthyl)pyrimidin-2-yl]piperidin-4-yl}methanol] | 1.81 | 0.02 | –
OCC1CCN(c2nccc(-c3ccc4ccccc4c3)n2)C1 (centres unmarked) [{1-[4-(2-naphthyl)pyrimidin-2-yl]pyrrolidin-3-yl}methanol] | 2.13 | 1.42 | EC50 (Dkk1-LRP5-TCF-Luciferase [2]): 925 nM; A = MAX FOLD Induction/DMSO CONTROL (Dkk1-LRP5-TCF-Luciferase [2]): 1.975 fold
NCC1(CN)C[C@@H]2C[C@H]1CN2c1nccc(-c2ccc3ccccc3c2)n1 [{(1S,4R)-2-[4-(2-naphthyl)pyrimidin-2-yl]-2-azabicyclo[2.2.1]heptane-5,5-diyl}dimethanamine] | 1.2 | – | –
OC[C@H]1CCCN1c1nccc(-c2ccc3ccccc3c2)n1 [{(2R)-1-[4-(2-naphthyl)pyrimidin-2-yl]pyrrolidin-2-yl}methanol] | 1.85 | 1.78 | –
OC[C@@H]1CCCN1c1nccc(-c2ccc3ccccc3c2)n1 [{(2S)-1-[4-(2-naphthyl)pyrimidin-2-yl]pyrrolidin-2-yl}methanol] | 2.05 | 2.02 | –
OC[C@@H]1CCCN(c2nccc(-c3ccc4ccccc4c3)n2)C1 [{(3R)-1-[4-(2-naphthyl)pyrimidin-2-yl]piperidin-3-yl}methanol] | 1.98 | 1.08 | A = MAX FOLD Induction/DMSO CONTROL (Dkk1-LRP5-TCF-Luciferase [2]): 1.800 fold
OC[C@H]1CCCN(c2nccc(-c3ccc4ccccc4c3)n2)C1 [{(3S)-1-[4-(2-naphthyl)pyrimidin-2-yl]piperidin-3-yl}methanol] | 2.8 | 1.81 | A = MAX FOLD Induction/DMSO CONTROL (Dkk1-LRP5-TCF-Luciferase [2]): 1.840 fold
